Tests used:
[1] = test system: rats; test: Gastric ulcerogenic liability in rats
[2] = test system: PGE2; details: read-out: PGE2 inhibition IC50; cited from earlier work
[3] = test system: carrageenan induced edema in rat paw; test: Carrageenan induced edema model in rat paw; format: in vivo; details: 50 mg/kg oral; for Anti-inflammatory (AI) %, range over time points: range over 1, 3 and 5 h
[4] = target: T1, COX-2 (Ovis aries, UniProt P79208); test: COX-2 inhibition, enzyme immunoassay; format: biochemical, ovine; details: for SI = IC50 (COX-1)/ IC50 (COX-2): selectivity index
T1 sequence (P79208 17-603): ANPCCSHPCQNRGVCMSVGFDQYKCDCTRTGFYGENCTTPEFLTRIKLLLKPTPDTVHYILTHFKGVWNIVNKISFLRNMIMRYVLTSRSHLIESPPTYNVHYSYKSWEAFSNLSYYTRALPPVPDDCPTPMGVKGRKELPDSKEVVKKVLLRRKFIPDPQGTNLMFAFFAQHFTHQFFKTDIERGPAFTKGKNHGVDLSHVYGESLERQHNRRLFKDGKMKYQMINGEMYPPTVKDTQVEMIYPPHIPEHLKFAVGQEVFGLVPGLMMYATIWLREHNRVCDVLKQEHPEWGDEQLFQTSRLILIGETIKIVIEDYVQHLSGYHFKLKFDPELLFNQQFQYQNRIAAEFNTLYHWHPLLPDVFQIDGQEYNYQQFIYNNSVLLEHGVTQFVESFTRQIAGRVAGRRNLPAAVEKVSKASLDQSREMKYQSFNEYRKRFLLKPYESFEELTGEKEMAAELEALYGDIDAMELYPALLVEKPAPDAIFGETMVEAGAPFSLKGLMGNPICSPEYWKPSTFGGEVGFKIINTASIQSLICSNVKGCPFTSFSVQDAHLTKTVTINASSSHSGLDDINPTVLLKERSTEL

[5] = target: T2, COX-1 (Ovis aries, UniProt P05979); test: COX-1 inhibition, enzyme immunoassay; format: biochemical, ovine
T2 sequence (P05979 25-600): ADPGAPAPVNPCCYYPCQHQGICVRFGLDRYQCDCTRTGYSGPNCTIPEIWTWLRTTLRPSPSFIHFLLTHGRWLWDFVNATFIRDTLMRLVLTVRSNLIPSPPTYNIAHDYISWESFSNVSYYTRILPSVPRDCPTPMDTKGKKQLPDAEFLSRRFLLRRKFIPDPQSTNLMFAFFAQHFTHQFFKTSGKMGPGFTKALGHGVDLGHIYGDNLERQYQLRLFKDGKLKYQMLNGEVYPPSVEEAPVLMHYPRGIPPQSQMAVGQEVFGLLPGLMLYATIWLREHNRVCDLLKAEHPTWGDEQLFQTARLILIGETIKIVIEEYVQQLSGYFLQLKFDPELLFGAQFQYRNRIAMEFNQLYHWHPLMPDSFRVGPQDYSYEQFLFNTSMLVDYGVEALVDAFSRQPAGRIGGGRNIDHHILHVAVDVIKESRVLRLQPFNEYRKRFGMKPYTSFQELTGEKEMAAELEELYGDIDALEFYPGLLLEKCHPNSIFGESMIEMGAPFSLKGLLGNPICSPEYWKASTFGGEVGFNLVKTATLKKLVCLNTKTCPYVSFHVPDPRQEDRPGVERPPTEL

[6] = test system: TNF-ὰ; details: cited from earlier work
[7] = test system: interleukin IL-6; details: cited from earlier work

| IC50 [4] | SI = IC50 (COX-1)/ IC50 (COX-2) [4] | IC50 [5] | Compound | Relative Ulcerogenicity to Celecoxib [1] | Ulcer Index [1] | Ulcer Number [1] | IC50 [2] | Anti-Inflammatory Activity % (AI) ([3]; 1 h) | Paw edema (change of paw dimensions), mean ± SEM ([3]; 1 h) | Anti-Inflammatory Activity % (AI) ([3]; 3 h) | Paw edema (change of paw dimensions), mean ± SEM ([3]; 3 h) | Anti-Inflammatory Activity % (AI) ([3]; 5 h) | Paw edema (change of paw dimensions), mean ± SEM ([3]; 5 h) | Anti-inflammatory (AI) %, range over time points [3] | inhibition of TNF-ὰ [6] | inhibition of interleukin IL-6 [7] |
| --- | --- | --- | --- | --- | --- | --- | --- | --- | --- | --- | --- | --- | --- | --- | --- | --- |
|  |  |  | Cc1ccc(-c2cc(C(F)(F)F)nn2-c2ccc(S(N)(=O)=O)cc2)cc1 [Celecoxib, reference compound] | 1 | 3.00 ± 0.09 | 3.25 ± 0.17 | 0.1 µM | 43% | 0.83 ± 0.09 | 43% | 0.80 ± 0.11 | 54% | 0.65 ± 0.10 |  |  |  |
| 0.95 ± 0.01 µM | 11.82 | 11.2 ± 0.27 µM | CCOC(=O)c1ccc(/N=N/c2ccc(O)c(C3c4c([nH]c(=S)[nH]c4=O)Nc4[nH]c(=S)[nH]c(=O)c43)c2)cc1 [IIIf, Ethyl (E)-4-((3-(4,6-Dioxo-2,8-Dithioxo-1,2,3,4,5,6,7,8,9,10-Decahydropyrido[2,3-D:6,5-D’]Dipyrimidin-5-Yl)-4-Hydroxyphenyl)Diazenyl)Benzoate] | 1.25 | 3.75 ± 0.11 | 3.75 ± 0.15 |  | 52% |  | 59% | 0.58 ± 0.11 | 66% | 0.48 ± 0.14 | 52–66% |  |  |
| 2.43 ± 0.07 µM | 3.23 | 7.84 ± 0.16 µM | CCOC(=O)c1ccc(/N=N/c2cc(C3c4c([nH]c(=S)[nH]c4=O)Nc4[nH]c(=S)[nH]c(=O)c43)c(OC)cc2OC)cc1 [IIIh, Ethyl (E)-4-((5-(4,6-Dioxo-2,8-Dithioxo-1,2,3,4,5,6,7,8,9,10-Decahydropyrido[2,3-D:6,5-D’]Dipyrimidin-5-Yl)-2,4-Dimethoxyphenyl)Diazenyl)Benzoate] | 1.75 | 5.25 ± 0.13 | 6.50 ± 0.11 |  | 67% | 0.49 ± 0.05 |  |  | 57% |  | 57–67% |  |  |
| 0.69 ± 0.02 µM | 4.71 | 3.25 ± 0.07 µM | O=c1[nH]c(=S)[nH]c2c1C(c1cc(/N=N/c3ccc(-c4nc5ccccc5s4)cc3)ccc1O)c1c([nH]c(=S)[nH]c1=O)N2 [IIIi, (E)-5-(5-((4-(Benzo[D]thiazol-2-Yl)Phenyl)Diazenyl)-2-Hydroxyphenyl)-2,8-Dithioxo-2,3,5,8,9,10-Hexahydropyrido[2,3-D:6,5-D’]Dipyrimidine-4,6(1H,7H)-Dione] |  |  |  |  | 24% | 1.10 ± 0.14 | 43% | 0.80 ± 0.15 | 52% | 0.68 ± 0.13 |  |  |  |
|  |  |  | COc1ccc2c(c1)c(CC(=O)O)c(C)n2C(=O)c1ccc(Cl)cc1 [Indomethacin, reference compound] | 7.5 | 22.5 ± 0.21 | 14.25 ± 0.31 |  |  |  |  |  |  |  |  |  |  |
|  |  |  | C[C@@H]1C[C@H]2[C@@H]3CCC4=CC(=O)C=C[C@]4(C)[C@@]3(F)[C@@H](O)C[C@]2(C)[C@@]1(O)C(=O)CO [dexamethasone] |  |  |  |  |  |  |  |  |  |  |  | 72% | 86% |

Source: PMC8807947 (Journal of Inflammation Research, 2022)
